What was measured:
Type in all cases: in vivo, human
[1] = system: Smokers interested in stopping smoking; assay: Diffusing capacity of the lung for carbon monoxide (DLCO) in the sildenafil trial; conditions: 20 mg/day
Method: (§1) Smokers interested in stopping smoking were imaged using a dual energy computerized tomography (DECT) protocol to determine baseline lung density and perfusion, then randomized to receive either 20 mg of sildenafil or placebo each day. Subjects were then followed each month for three months (i.e., 30, 60 and 90 days) to asses changes in lung density via DECT and alterations in the diffusing capacity of the lung for carbon monoxide (DLCO) (e.g., improved gas exchange) in conjunction with the determination of the level of smoking cessation by means of serum cotinine levels. As per standard protocol, the research team was blinded to treatment group until the subject had exited the trial and DECT image analysis was completed. Importantly, because serum cotinine levels were used to determine smoking cessation status, subjects were not allowed to use nicotine replacement therapy. However, in order to encourage the likelihood of smoking cessation, subjects were given incentive-based programming.

[2] = system: Smokers interested in stopping smoking; assay: Lung density (inflammation) by dual energy computerized tomography (DECT) in the sildenafil trial; conditions: 20 mg/day
Method: as §1

[3] = system: Smokers interested in stopping smoking; assay: Randomized placebo-controlled sildenafil smoking cessation trial with incentive-based programming; cessation determined by serum cotinine
Method: as §1
In this paradigm, subjects are financially rewarded for smoking cessation (see, for example, Alford et al., 2010, PNAS USA, 107:7485-90; Iyer et al., 2016, Am. J. Resp. Crit. Care Med., 193:652-61).
The results were analyzed from the first 48 subjects who enrolled in the study. Briefly, the subjects in the cohort were largely of European ancestry, and the cohort was evenly balanced between males and females, with subjects of both genders tending to be between 30 and 60 years of age. As evidenced by their pre-experiment serum cotinine levels, they also tended to be moderate to heavy smokers.
In order to qualify for the financial incentive of $400, the subjects had to complete all 4 visits (intake and 3 follow-up visits at 30, 60 and 90 days) and had to quit smoking as evidenced by serum cotinine levels. In total, of the first 48 subjects enrolled in the study, 9 subjects completed just the intake, 7 subjects participated in both the intake and first visit, and 31 subjects completed all 4 visits in the study (Table 3). Data from one subject who dropped immediately from the study is not available.

[4] = group who successfully stopped smoking for 90 days on sildenafil
[5] = sildenafil without smoking cessation

CCCc1nn(C)c2c(=O)[nH]c(-c3cc(S(=O)(=O)N4CCN(C)CC4)ccc3OCC)nc12 [Sildenafil, sildenafil]
Change in DLCO [1, 4]: improvement in DLCO
Change in DLCO [1, 5]: no significant change
Change in lung density (inflammation) [2, 4]: significant loss of lung density
Change in lung density (inflammation) [2, 5]: no significant change
Cessation: <50% reduction of cotinine (number of subjects) ([3]; 20 mg sildenafil each day, N=24): 3
Cessation: Visits with <2 ng/ml cotinine (number of visits) ([3]; 20 mg sildenafil each day, N=24, 30-, 60- and 90-day visits): 36
Cessation: Quit at 90 days (number of subjects) ([3]; 20 mg sildenafil each day, N=24, by serum cotinine): 12
Follow-up visits with negative serum cotinine values (<2 ng/ml) ([3]; 20 mg/day, 30-, 60- and 90-day visits, vs. placebo p<0.002, Exact Test): 36 of 72
Females having achieved abstinence at 90 days (negative serum cotinine) ([3]; 20 mg/day, females): 6
Full or partial response of treatment (≥average 50% reduction of intake cotinine levels compared to average of 30-, 60- and 90-day visits) (subjects) ([3]; 20 mg/day, intention to treat, vs. placebo p<0.02 Exact Test): 15 of 24
Complete cessation (subjects) ([3]; 20 mg/day, intention to treat, vs. placebo p<0.09, Exact Test): 12 of 24
Males having achieved abstinence at 90 days (negative serum cotinine) ([3]; 20 mg/day, males): 6

Reference: patent US20230041334A1, “METHODS AND COMPOSITIONS FOR SMOKING CESSATION” (BEHAVIORAL DIAGNOSTICS, LLC, priority 2019, published 2023)
